{"source": "patent US5504190A", "about": "“Equimolar multiple oligomer mixtures, especially oligopeptide mixtures” (priority 1994, dated 1996)", "key": {"[1]": {"biological_target": "monoclonal antibody (mAb) 125-10F3", "experiment": "competitive ELISA, inhibition of mAb 125-10F3 binding to plate-adsorbed polypeptide SEQ ID NO:1", "from_the_text": "Monoclonal antibody (mAb) 125-10F3 was used in these studies, which binds specifically to a 13-residue polypeptide […](SEQ ID NO:1) Appel et al., J. Immunol., 144:976-983 (1990)!. The antigenic determinant recognized by the mAb is Pro-Tyr-Pro-Asn-Leu-Ser (SEQ ID NO:2), determined previously using individual omission analogs of the polypeptide as is seen in FIG. 2.\nThe peptide library was screened utilizing a competitive ELISA system that measured the inhibition in solution of the binding of the mAb to polypeptide SEQ ID NO:1 adsorbed to an assay plate by each individual element of the synthetic combinatorial library. […] Screening data for an exemplary eighteen of the 400 sets are shown in FIG. 4, with arrows at the two best binding sequences.\nThe concentration of the inhibiting oligopeptide sets at which 50 percent of the mAb was inhibited in its binding to the polypeptide (IC-50) was determined."}, "mAb 19B10": {"biological_target": "mAb 19B10", "experiment": "competitive ELISA, inhibition of mAb 19B10 binding to plate-adsorbed peptide SEQ ID NO:89", "settings": "as the positions were defined", "from_the_text": "The antigenic determinant recognized by mAb 19B10 has the sequence Asp-Val-Pro-Asp-Tyr-Ala (SEQ ID NO:88). […].\nOligopeptide sets were screened in the general manner discussed previously, except that rather than using 400 mixture sets whose first two positions were defined and whose last four were equimolar mixtures for the first screen, 324 such N-acetyl C-amide sets were used based on mixtures of eighteen amino acids. Tryptophan and cysteine were not included with these mixture."}, "[2]": {"settings": "later study completing the Ac-Tyr-Pro series (\"in this study\"), read-out: IC-50"}}, "note": "Where two headings read alike, the source gives them in different places."}
{"substance": "Ac-PYPNLS-NH2 [Ac-Pro-Tyr-Pro-Asn-Leu-Ser-NH2]", "values": [{"measurement": "IC50", "setting": "[1]; iterative screening and control study of Example 2, read-out: IC-50 (concentration at which 50 percent of the mAb was inhibited in its binding to the polypeptide)", "value": 10, "unit": "nM"}, {"measurement": "IC50", "setting": "[1]; [2]", "value": 40, "unit": "nM"}]}
{"substance": "Ac-DVPDYA-NH2 [Ac-Asp-Val-Pro-Asp-Tyr-Ala-NH2]", "values": [{"measurement": "IC50", "setting": "mAb 19B10", "value": 30, "unit": "nM"}]}
{"substance": "Ac-YPNLSN-NH2 [Ac-Tyr-Pro-Asn-Leu-Ser-Asn-NH2]", "values": [{"measurement": "IC50", "setting": "[1]; [2]", "value": 150, "unit": "nM"}, {"measurement": "IC-50 value difference between the mixture (positions 1-5 of SEQ ID NO:15, position 6 mixture) and the single peptide", "setting": "[1]; mixture inhibited better", "value": "about a factor of four"}]}
